Legend:
[1] = molecular target: T1, S100B (Homo sapiens, UniProt P04271); test: Pull-down assay with immobilized protein and LSM libraries; format: binding; conditions: for Kd: H14 library, 1:1 binding assumed, read-out: Surface mapping KD (apparent); for Affinity class of probe (high, medium, low) in pull-down: H14 probes selected for validation
T1 construct: made in house; host or cells: Escherichia coli BL21(DE3)
T1 sequence (P04271 1-92): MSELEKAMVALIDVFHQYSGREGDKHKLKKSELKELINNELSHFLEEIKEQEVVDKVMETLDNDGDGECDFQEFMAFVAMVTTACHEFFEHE
Procedure, shortened: (§1)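 Buffers were HEPES pH 7.4 with 150 mM NaCl, plus 1 mM TCEP and 1 mM CaCl2 (50 mM HEPES) for S100A4 and S100B, 1 mM TCEP for Gal-1, and no additive for RecQ-WH. Immobilized protein at 64 µM was equilibrated 30 min with the LSM sublibrary, and unbound probes were measured by LC-MS.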

[2] = molecular target: T2, RecQ-WH (Escherichia coli, UniProt P15043); test: as above; set-up: species or system E. coli; conditions: H14 library; 1:1 binding assumed; read-out: Surface mapping KD (apparent)
T2 construct: coding for residues 408– 523 of E. coli RecQ; made in house; host or cells: E. coli BL21(DE3)
T2 sequence (P15043 408-523): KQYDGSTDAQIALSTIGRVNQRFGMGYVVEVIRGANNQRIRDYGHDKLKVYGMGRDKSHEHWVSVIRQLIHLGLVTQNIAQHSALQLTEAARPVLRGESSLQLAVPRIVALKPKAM
Description: Pull-down assays with immobilized test proteins and foldameric LSM libraries were carried out. Proteins were equilibrated with LSM probes, and equilibrium bound fractions (FB) were determined from the unbound fractions measured by HPLC-MS methods. Hits were corrected with background binding of the resin. The protocol allowed all binding events to equilibrate irrespective of affinity, specificity, and binding kinetics. This was essential to judge overall druggability and promiscuity. Importantly, the concentration of protein and the total concentration of foldameric LSMs were equimolar, which minimized competition between the probes. This experimental setup approximated independent binding of individual library members. Results were visualized as heat maps of dissociation constants (Fig. 3).
Pull-down assay and data analysis
Pull-down assay. LSM sublibraries were screened separately as previously described.(2) Experiments were performed in the following buffers: (i) 20 mM pH 7.4 HEPES, 150 mM NaCl, 5 mM CaCl2 for CaM; (ii) 50 mM pH 7.4 HEPES, 150 mM NaCl, 1 mM TCEP, 1 mM CaCl2 for S100 proteins; (iii) 20 mM pH 7.4 HEPES, 150 mM NaCl, 1 mM TCEP for Gal-1 and (iv) 20 mM pH 7.4 HEPES, 150 mM NaCl for RecQ-WH. Assays were performed in paper filter spin cups (Thermo Scientific) with sample volumes of 100 µl. Hexahistidine-tagged proteins were immobilized on previously washed Co-NTA resin (TALON, Takara Bio USA, Inc., Mountain View, CA) in 64 µM final concentration. LSM sublibrary was added, in which each of the 64 library members were used at a concentration of 1 µM. Samples were incubated at room temperature for 30 min with shaking at 100 rpm. Then, samples were centrifuged at 1000 rpm for 2 min and washed with 100 µl pull-down buffer to remove unbound compounds.
The control experiments were performed using the same compounds and the resin but without the immobilized protein. In case of competitive assays, competitor peptides were added to LSM sublibrary samples in 200 µM final concentration. In the case of Gal-1, lactose (competitor) was used in a concentration of 10 mM. Experiments were performed at least twice. Mean […]
LC-MS methods and parameters. HPLC/ESI-MS analysis was used to characterize the samples from the pull-down assay. LC-MS analysis was performed with a Thermo Scientific Dionex UltiMate 3000 HPLC system interfaced to an LTQ ion trap mass spectrometer (Thermo Electron Corp., San Jose, CA, USA). Samples were injected onto an Aeris Widepore XB-C18 (250 x 4.6 mm) analytical HPLC column using gradient elution 5-80 % solution B during 25 minutes. For pull-down samples, eluent composition was 0.1% acetic acid in distilled water (Solution A) and 0.1% acetic acid in acetonitrile (solution B). Mass spectra were acquired in full scan mode from 200 to 2000 m/z range. For overlapping peaks, selective reaction monitoring (SRM) was […]
MS data analysis. Thermo Xcalibur 2.2 software was used for peak identification and integration. The majority of the foldameric fragments could be resolved independently via HPLC-MS/MS measurements based on molecular weight, MS fragmentation pattern and retention time. Peaks of some foldamers with β3-hIle or β3-hLeu in position R2 could not be resolved, these were integrated and averaged. In the processing method, each sample component was associated to a chromatographic peak based on previously identified mass (m/z) and retention time (ref (2) and Table S7-10). Using ICIS peak detection algorithm, the general detection and integration criteria were: smoothing points: 5, baseline window: 80, area noise factor: 5, peak noise factor: 10. Using these processing setups, all raw data files were reprocessed together and analyzed. Errors in peak identification during the automatic processing were corrected manually.
Calculation of the discussed parameters
1. Bound fractions (FB.) were calculated from the HPLC-MS intensity loss of the LSM probes compared to the control where no protein was immobilized to the resin: […]

[3] = molecular target: T3, CaM (Bos taurus, UniProt P62157); test: Competition pull-down with native ligand TRPV1-Ct15; format: binding, bovine; conditions: H14 library; competitor peptide 200 µM; read-out: Surface mapping KD (apparent), competition
T3 construct: made in house; host or cells: E. coli BL21 (DE3)

[4] = molecular target: T3, CaM; test: Pull-down assay with immobilized protein and LSM libraries; format: binding, bovine; conditions: H14 library; 1:2 stoichiometry assumed; read-out: Surface mapping KD (apparent)
Procedure, shortened: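 His-tagged protein immobilized on Co-NTA resin, equilibrated 30 min at room temperature with LSM sublibraries (64 members, […]), equimolar protein to total probe. CaM buffer: 20 mM HEPES pH 7.4, 150 mM NaCl, 5 mM CaCl2. Bound fractions from HPLC-MS loss of unbound probe versus protein-free resin control; Kd derived.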

[5] = molecular target: T4, S100A4 (Homo sapiens, UniProt P26447); test: as above; format: binding; conditions: for Affinity class of probe (high, medium, low) in pull-down: H14 probes selected for validation; for Kd: H14 library, 1:1 binding assumed, read-out: Surface mapping KD (apparent)
T4 construct: made in house; host or cells: Escherichia coli BL21(DE3)
T4 sequence (P26447 whole entry): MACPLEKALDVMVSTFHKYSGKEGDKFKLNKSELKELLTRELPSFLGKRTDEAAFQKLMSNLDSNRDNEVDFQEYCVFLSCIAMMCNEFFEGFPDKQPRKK
Procedure, shortened: as §1

[6] = molecular target: T5, Gal-1 (Homo sapiens, UniProt P09382); test: as above; format: binding; conditions: H14 library; 1:1 binding assumed; read-out: Surface mapping KD (apparent)
T5 construct: made in house; host or cells: E. coli BL21(DE3)
T5 sequence (P09382 whole entry): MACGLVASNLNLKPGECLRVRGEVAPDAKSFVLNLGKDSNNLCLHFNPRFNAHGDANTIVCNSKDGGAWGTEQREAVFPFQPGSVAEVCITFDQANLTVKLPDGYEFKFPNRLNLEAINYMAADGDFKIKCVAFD
Procedure, shortened: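 His-tagged protein immobilized on Co-NTA resin (64 µM) in 20 mM HEPES pH 7.4, 150 mM NaCl, equilibrated 30 min at room temperature with foldamer LSM sublibraries at equimolar total concentration. Unbound fractions quantified by HPLC-MS versus protein-free resin control; apparent KD assumes 1:1 binding.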

[7] = molecular target: T5, Gal-1; test: Competition pull-down with lactose; format: binding; conditions: H14 library; lactose 10 mM; read-out: Surface mapping KD (apparent), competition
Procedure, shortened: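 His6-tagged proteins immobilized on Co-NTA resin at 64 µM final with 64-member LSM foldamer sublibraries (1 M each, as printed) in pH 7.4 HEPES/NaCl buffers (Ca2+/TCEP per target), 30 min RT; competitor peptides 200 µM final, lactose 10 mM for Gal-1. Bound fractions from LC-MS loss vs protein-free resin; KD assuming 1:1 binding.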

[8] = molecular target: T1, S100B; test: Competition pull-down with native ligand RSK1 (689–735); format: binding; conditions: H14 library; competitor peptide 200 µM; read-out: Surface mapping KD (apparent), competition

Compound | Kd [1] [µM] | Kd [2] [µM] | Kd [3] [µM] | Kd [4] [µM] | Binding ([5]; H14 probes) | Affinity class of probe (high, medium, low) in pull-down [5] | Binding ([1]; H14 probes) | Affinity class of probe (high, medium, low) in pull-down [1] | Kd [6] [µM] | Kd [5] [µM] | Kd [7] [µM] | Kd [8] [µM]
NC(=O)[C@H]1CCCC[C@@H]1NC(=O)C[C@H](Cc1c[nH]c2ccccc12)NC(=O)[C@H]1CCCC[C@@H]1NC(=O)[C@H]1CCCC[C@@H]1NC(=O)C[C@H](CC(=O)O)NC(=O)[C@H]1CCCC[C@@H]1N [H14 DW] | 200 | 165 | 439 |  |  |  |  |  |  |  |  | 
N=C(N)NCCC[C@@H](CC(=O)N[C@H]1CCCC[C@@H]1C(N)=O)NC(=O)[C@H]1CCCC[C@@H]1NC(=O)[C@H]1CCCC[C@@H]1NC(=O)C[C@H](CCCNC(=N)N)NC(=O)[C@H]1CCCC[C@@H]1N [H14 RR] | 18 | 355 | 103 | 10 | does not | low | binds | high |  |  |  | 
CSCC[C@@H](CC(=O)N[C@H]1CCCC[C@@H]1C(=O)N[C@H]1CCCC[C@@H]1C(=O)N[C@@H](CCCNC(=N)N)CC(=O)N[C@H]1CCCC[C@@H]1C(N)=O)NC(=O)[C@H]1CCCC[C@@H]1N [H14 MR] | 92 | 457 |  | 19 |  |  |  |  | 395 | 247 | 310 | 
C[C@@H](CC(=O)N[C@H]1CCCC[C@@H]1C(N)=O)NC(=O)[C@H]1CCCC[C@@H]1NC(=O)[C@H]1CCCC[C@@H]1NC(=O)C[C@H](CCCNC(=N)N)NC(=O)[C@H]1CCCC[C@@H]1N [H14 RA] | 188 | 456 | 449 | 111 |  |  |  |  |  |  |  | 
NC(=O)[C@H]1CCCC[C@@H]1NC(=O)C[C@H](Cc1ccccc1)NC(=O)[C@H]1CCCC[C@@H]1NC(=O)[C@H]1CCCC[C@@H]1NC(=O)C[C@H](CO)NC(=O)[C@H]1CCCC[C@@H]1N [H14 SF] | 105 | 182 |  | 30 |  |  |  |  | 267 | 71 | 312 | 
C[C@@H](O)[C@@H](CC(=O)N[C@H]1CCCC[C@@H]1C(N)=O)NC(=O)[C@H]1CCCC[C@@H]1NC(=O)[C@H]1CCCC[C@@H]1NC(=O)C[C@H](Cc1ccccc1)NC(=O)[C@H]1CCCC[C@@H]1N [H14 FT] | 274 | 218 |  | 11 |  |  |  |  | 348 | 135 |  | 333
N=C(N)NCCC[C@@H](CC(=O)N[C@H]1CCCC[C@@H]1C(N)=O)NC(=O)[C@H]1CCCC[C@@H]1NC(=O)[C@H]1CCCC[C@@H]1NC(=O)C[C@H](CCCCN)NC(=O)[C@H]1CCCC[C@@H]1N [H14 KR] | 22 | 486 | 249 | 22 |  |  |  |  |  |  | 323 | 
NC(=O)[C@H]1CCCC[C@@H]1NC(=O)C[C@H](CO)NC(=O)[C@H]1CCCC[C@@H]1NC(=O)[C@H]1CCCC[C@@H]1NC(=O)C[C@H](Cc1ccccc1)NC(=O)[C@H]1CCCC[C@@H]1N [H14 FS] | 364 | 303 |  | 15 |  |  |  |  |  | 111 |  | 429
CC(C)[C@@H](CC(=O)N[C@H]1CCCC[C@@H]1C(N)=O)NC(=O)[C@H]1CCCC[C@@H]1NC(=O)[C@H]1CCCC[C@@H]1NC(=O)C[C@H](CCCCN)NC(=O)[C@H]1CCCC[C@@H]1N [H14 KV] | 102 | 442 | 376 | 50 |  |  |  |  |  | 71 |  | 
NC(=O)CC[C@@H](CC(=O)N[C@H]1CCCC[C@@H]1C(N)=O)NC(=O)[C@H]1CCCC[C@@H]1NC(=O)[C@H]1CCCC[C@@H]1NC(=O)C[C@H](Cc1c[nH]c2ccccc12)NC(=O)[C@H]1CCCC[C@@H]1N [H14 WQ] | 161 | 473 | 495 | 16 |  |  |  |  |  | 191 |  | 
CC[C@H](C)[C@@H](CC(=O)N[C@H]1CCCC[C@@H]1C(=O)N[C@H]1CCCC[C@@H]1C(=O)N[C@H](CC(=O)N[C@H]1CCCC[C@@H]1C(N)=O)Cc1ccc(O)cc1)NC(=O)[C@H]1CCCC[C@@H]1N [H14 IY] | 74 | 300 |  | 15 |  |  |  |  | 258 | 20 |  | 156
CC(C)[C@@H](CC(=O)N[C@H]1CCCC[C@@H]1C(=O)N[C@H]1CCCC[C@@H]1C(=O)N[C@H](CC(=O)N[C@H]1CCCC[C@@H]1C(N)=O)Cc1ccc(O)cc1)NC(=O)[C@H]1CCCC[C@@H]1N [H14 VY] | 110 | 115 |  | 30 |  |  |  |  | 318 | 50 |  | 167
N=C(N)NCCC[C@@H](CC(=O)N[C@H]1CCCC[C@@H]1C(N)=O)NC(=O)[C@H]1CCCC[C@@H]1NC(=O)[C@H]1CCCC[C@@H]1NC(=O)C[C@H](Cc1ccc(O)cc1)NC(=O)[C@H]1CCCC[C@@H]1N [H14 YR] | 67 | 421 | 117 | 11 |  |  |  |  | 377 | 117 | 309 | 
N=C(N)NCCC[C@@H](CC(=O)N[C@H]1CCCC[C@@H]1C(=O)N[C@H]1CCCC[C@@H]1C(=O)N[C@@H](CCCCN)CC(=O)N[C@H]1CCCC[C@@H]1C(N)=O)NC(=O)[C@H]1CCCC[C@@H]1N [H14 RK] | 22 | 486 | 249 | 22 |  |  |  |  |  |  | 323 | 
N=C(N)NCCC[C@@H](CC(=O)N[C@H]1CCCC[C@@H]1C(=O)N[C@H]1CCCC[C@@H]1C(=O)N[C@H](CC(=O)N[C@H]1CCCC[C@@H]1C(N)=O)Cc1ccccc1)NC(=O)[C@H]1CCCC[C@@H]1N [H14 RF] | 16 | 231 | 350 | 4 |  | medium |  | high |  | 65 |  | 
